Results reported in PMC7819857, “Identification of Inhibitors of Integrin Cytoplasmic Domain Interactions With Syk” (Frontiers in Immunology, 2021).
Read-outs that look alike come from different tables or passages of the source.

What was measured:
[1] = target: T1, integrin β3 cytoplasmic domain : tandem SH2 domains of Syk (GST-Syk(6-370)) (Homo sapiens, UniProt P43405); assay: AlphaScreen of integrin β3 cytoplasmic domain peptide binding to GST-Syk(6-370); conditions: for fold difference in inhibition, primary screen over false-positive counter screen (hit criterion): re-sourced compounds, counter screen with biotinylated GST; for inhibition of fluorescent signal in the primary screen, re-sourced compounds (hit criterion): re-sourced from a separate commercial source, 25 uM in text, 30 uM in legend of Figure 2C
T1 construct: the tandem SH2 domains of Syk (residues 6-370); made in house; host or cells: E. coli BL21(DE3)
Procedure: The following HTS assay was developed to identify antagonists of the interaction between the integrin β3 cytoplasmic domain and the non-receptor tyrosine kinase Syk. […] ( Figure 1E ). Background signals in this assay were determined by omitting the integrin β3 peptide. Specific assay conditions are described in Table 1 . […] Then, either dimethyl sulfoxide control or compound was added, followed by biotinylated β3 peptide, and avidin-coated AlphaScreen donor beads. After a 4-h incubation period at room temperature (while protected from light), assays plates were read on an Infinite M1000 (Tecan) multiplate reader (Ex. 680/30; Em. 570/100).
Figure 3 Dose-response curves in primary and orthogonal screens. (A) AlphaScreen dose-response curves. […] Data are expressed as mean fluorescence (Fl520) ± range from duplicates, and one representative experiment of “n” performed is shown. (B) Orthogonal ELISA-based dose-response assays. […] Data are expressed as mean abs450 ± SEM from triplicate determinations, and one of three representative experiments is shown. (C) Ceftazidime inhibition of β3 peptide binding to Syk from THP-1 whole cell lysate. THP-1 cell lysate (100 ug) was treated with or without ceftazidime (Ctaz) before incubation with β3-coated avidin-agarose beads, and bound Syk was measured by western blot (example shown in inset). Blank beads served as a negative control. Equal β3 peptide loading was verified by probing blots with avidin-HRP (not shown).

[2] = target: T2, integrin β3 cytoplasmic domain (bβ3(fl)) : GST-Syk(6-370) (Homo sapiens, UniProt P43405); assay: ELISA-based orthogonal assay, bβ3(fl) and GST-Syk(6-370); format: binding
T2 construct: the tandem SH2 domains of Syk (residues 6-370); made in house; host or cells: E. coli BL21(DE3)
Procedure: For ELISA-based assays, 96-well plates (Costar cat# 9018) were coated overnight at 4°C with neutravidin (Thermo Scientific, cat#31050) in 10 mM Tris pH 9 and 100 mM NaCl. After overnight incubation, non-specific binding sites were blocked with bovine serum albumin (BSA) (2% w/v) for at least 1 h at room temperature. Plates were washed in 25 mM HEPES pH 7.5, 100 mM NaCl, 0.1% BSA, and 0.01% TritonX-100 (assay buffer), and indicated biotinylated β3 peptide was incubated for at least 2 h at room temperature (0.5–3 ug/ml in di-H2O). After washing in the assay buffer, GST-fusion proteins were added (50 ul, indicated concentrations) and incubated at room temperature for 1 h in assay buffer. For compound inhibition studies, compounds were added to GST-fusion proteins (at indicated concentrations) before they were added to plates. Plates were washed 3× with assay buffer (200 ul) to remove unbound GST-fusion protein. Horseradish peroxidase (HRP)-conjugated anti-GST antibody [Polyclonal anti-GST(Z-5)-HRP, Santa Cruz Biotechnology, cat #sc-459 0.2 ug/ml] was incubated in washed plates in 50 ul assay buffer for 45 min at room temperature. After washing, the signal was generated with 1-step Ultra TMB-ELISA (Thermo Scientific, cat#34028), stopped with 2 N H2SO4, and read on a plate reader (SPARK 10M/Tecan) at 450 nm.
Figure 3 Dose-response curves in primary and orthogonal screens. (A) AlphaScreen dose-response curves. […] Data are expressed as mean fluorescence (Fl520) ± range from duplicates, and one representative experiment of “n” performed is shown. (B) Orthogonal ELISA-based dose-response assays. […] Data are expressed as mean abs450 ± SEM from triplicate determinations, and one of three representative experiments is shown. (C) Ceftazidime inhibition of β3 peptide binding to Syk from THP-1 whole cell lysate. THP-1 cell lysate (100 ug) was treated with or without ceftazidime (Ctaz) before incubation with β3-coated avidin-agarose beads, and bound Syk was measured by western blot (example shown in inset). Blank beads served as a negative control. […]

[3] = target: T3, GST-free Syk(6-370) (Homo sapiens, UniProt P43405); assay: Thermal denaturation assay (SYPRO orange); format: binding; conditions: Syk(6-370) 2 µM, dose-dependent
T3 construct: Syk 6-370 (GST tag removed by thrombin cleavage) was used; GST (N, cleaved yes); made in house; host or cells: E. coli BL21(DE3)
Procedure: In this assay, Syk 6-370 (GST tag removed by thrombin cleavage) was used. Thrombin (GE Healthcare cat#270846, reconstituted in PBS to 1 unit/ul) was applied to the GST-Syk 6-370 protein bound to the Glutathione Sepharose beads. The GST-tag was cleaved with 20 unit/1 ml of protein-GST beads in PBS overnight at room temperature. After chromatography and additional cleaning on GST-beads, the purified protein was verified by SDS-PAGE. For thermal denaturation experiments, GST-free Syk(6-370) was used at a final concentration of 2 µM and SYPRO orange (Thermo Scientific, cat# S6650) at a 0.08% (v/v) dilution (from a 5000x stock). Compounds were used at indicated concentrations. Numerous reaction buffers were initially screened, and a final buffer containing 25 mM HEPES (pH 7.5) with 100 mM NaCl was used. Assays were performed in 20 µl volumes, in triplicate, in 384-well plates (Applied Biosystems MicroAmp 384-well clear optical reaction plate, catalogue #4483285). Plates were sealed with Applied Biosystems Optical Adhesive Cover (cat#4360954) and centrifuged for 2 min at 800 × g at room temperature. Thermal denaturation was measured on a Quant Studio 6 Flex Real-time PCR system (Applied Biosystems). […]

[4] = Solubility under assay conditions; format: physicochemical
[5] = Figure 3A: biotinylated-b3(sh) peptide 30 nM, GST-Syk(6-370) 0.3 nM, read-out: IC50, AlphaScreen dose-response

Row | IC50 [1, 5] [µM] | IC50 ([1]; abstract summary for both compounds, read-out: IC50 range, inhibition of integrin β-subunit cytoplasmic domain binding to the tandem SH2 domains of Syk) [µM] | IC50 ([1]; as restated in the Discussion, read-out: IC50 in AlphaScreen assays) [µM] | IC50 ([1]; biotinylated-b3(sh) peptide 30 nM, GST-Syk(6-370) 0.3 nM, read-out: value printed in Figure 3A, AlphaScreen dose-response (no measure name)) [µM] | fold difference in inhibition, primary screen over false-positive counter screen (hit criterion) [1] | inhibition of fluorescent signal in the primary screen, re-sourced compounds (hit criterion) [1] | inhibitory activity in ELISA-based orthogonal assay [2] | effect on melting temperature (Tm) of Syk(6-370) [3] | solubility under ELISA assay conditions ([4]; ELISA assay buffer, highest doses tested) | solubility for retest in primary and false-positive screens ([4]; re-sourced hit retest, 30 uM) | Molecule
1 | 4.9 ± 4.2 | 1.02 to 4.9 | 4.2 | 4.89 ± 4.2 | greater than 3 fold | greater than 50% | remained active | decreased | – | – | NC(=O)c1cc[n+](CC2=C(C(=O)O)N3C(=O)[C@@H](NC(=O)[C@@H](c4ccccc4)S(=O)(=O)[O-])[C@H]3SC2)cc1 [cefsulodin]
2 | 22.4 ± 4.1 | – | – | – | greater than 3 fold | greater than 50% | – | – | not soluble at the highest doses tested | – | C=C1c2cccc(O)c2C(=O)C2=C(O)[C@]3(O)C(=O)C(C(N)=O)=C(O)[C@@H](N(C)C)[C@@H]3[C@@H](O)[C@H]12 [methacycline]
3 | 0.038 ± 0.019 | – | – | – | greater than 3 fold | greater than 50% | did not demonstrate inhibitory activity | – | – | – | neomycin sulfate
4 | – | – | – | – | – | – | – | – | – | lack of solubility | CC[C@@]1(O)C(=O)OCc2c1cc1n(c2=O)Cc2cc3c(CN(C)C)c(O)ccc3nc2-1 [topotecan]
